Experimental data reported in patent publication US11208412B2 (DAEGU-GYEONGBUK MEDICAL INNOVATION FOUNDATION, priority 2017, dated 2021).

target: T1, recombinant LRRK2 kinase (Homo sapiens, UniProt Q5S007); experiment: LRRK2 kinase inhibition (Kinase-Glo luminescence); assay type: biochemical; conditions: IC50 grade; 25 μmol/L ATP, LRRKtide, 30° C. 2 hours; read-out: Enzyme activity LRRK2
T1 construct: purchased Signal Chem, Richmond, BC, Canada
Method: Upon completion of the reaction, an equal amount of Kinase-Glo (Promega, Madison, Wis.) solution was added thereto, followed by reaction for 40 minutes. A detection solution was added thereto, followed by further reaction at room temperature for 30 minutes. Then, IC50 of kinase was calculated by measuring the amount of luciferase using a microplate ELISA reader (Bio-Tek).

T1 sequence (Q5S007 whole entry): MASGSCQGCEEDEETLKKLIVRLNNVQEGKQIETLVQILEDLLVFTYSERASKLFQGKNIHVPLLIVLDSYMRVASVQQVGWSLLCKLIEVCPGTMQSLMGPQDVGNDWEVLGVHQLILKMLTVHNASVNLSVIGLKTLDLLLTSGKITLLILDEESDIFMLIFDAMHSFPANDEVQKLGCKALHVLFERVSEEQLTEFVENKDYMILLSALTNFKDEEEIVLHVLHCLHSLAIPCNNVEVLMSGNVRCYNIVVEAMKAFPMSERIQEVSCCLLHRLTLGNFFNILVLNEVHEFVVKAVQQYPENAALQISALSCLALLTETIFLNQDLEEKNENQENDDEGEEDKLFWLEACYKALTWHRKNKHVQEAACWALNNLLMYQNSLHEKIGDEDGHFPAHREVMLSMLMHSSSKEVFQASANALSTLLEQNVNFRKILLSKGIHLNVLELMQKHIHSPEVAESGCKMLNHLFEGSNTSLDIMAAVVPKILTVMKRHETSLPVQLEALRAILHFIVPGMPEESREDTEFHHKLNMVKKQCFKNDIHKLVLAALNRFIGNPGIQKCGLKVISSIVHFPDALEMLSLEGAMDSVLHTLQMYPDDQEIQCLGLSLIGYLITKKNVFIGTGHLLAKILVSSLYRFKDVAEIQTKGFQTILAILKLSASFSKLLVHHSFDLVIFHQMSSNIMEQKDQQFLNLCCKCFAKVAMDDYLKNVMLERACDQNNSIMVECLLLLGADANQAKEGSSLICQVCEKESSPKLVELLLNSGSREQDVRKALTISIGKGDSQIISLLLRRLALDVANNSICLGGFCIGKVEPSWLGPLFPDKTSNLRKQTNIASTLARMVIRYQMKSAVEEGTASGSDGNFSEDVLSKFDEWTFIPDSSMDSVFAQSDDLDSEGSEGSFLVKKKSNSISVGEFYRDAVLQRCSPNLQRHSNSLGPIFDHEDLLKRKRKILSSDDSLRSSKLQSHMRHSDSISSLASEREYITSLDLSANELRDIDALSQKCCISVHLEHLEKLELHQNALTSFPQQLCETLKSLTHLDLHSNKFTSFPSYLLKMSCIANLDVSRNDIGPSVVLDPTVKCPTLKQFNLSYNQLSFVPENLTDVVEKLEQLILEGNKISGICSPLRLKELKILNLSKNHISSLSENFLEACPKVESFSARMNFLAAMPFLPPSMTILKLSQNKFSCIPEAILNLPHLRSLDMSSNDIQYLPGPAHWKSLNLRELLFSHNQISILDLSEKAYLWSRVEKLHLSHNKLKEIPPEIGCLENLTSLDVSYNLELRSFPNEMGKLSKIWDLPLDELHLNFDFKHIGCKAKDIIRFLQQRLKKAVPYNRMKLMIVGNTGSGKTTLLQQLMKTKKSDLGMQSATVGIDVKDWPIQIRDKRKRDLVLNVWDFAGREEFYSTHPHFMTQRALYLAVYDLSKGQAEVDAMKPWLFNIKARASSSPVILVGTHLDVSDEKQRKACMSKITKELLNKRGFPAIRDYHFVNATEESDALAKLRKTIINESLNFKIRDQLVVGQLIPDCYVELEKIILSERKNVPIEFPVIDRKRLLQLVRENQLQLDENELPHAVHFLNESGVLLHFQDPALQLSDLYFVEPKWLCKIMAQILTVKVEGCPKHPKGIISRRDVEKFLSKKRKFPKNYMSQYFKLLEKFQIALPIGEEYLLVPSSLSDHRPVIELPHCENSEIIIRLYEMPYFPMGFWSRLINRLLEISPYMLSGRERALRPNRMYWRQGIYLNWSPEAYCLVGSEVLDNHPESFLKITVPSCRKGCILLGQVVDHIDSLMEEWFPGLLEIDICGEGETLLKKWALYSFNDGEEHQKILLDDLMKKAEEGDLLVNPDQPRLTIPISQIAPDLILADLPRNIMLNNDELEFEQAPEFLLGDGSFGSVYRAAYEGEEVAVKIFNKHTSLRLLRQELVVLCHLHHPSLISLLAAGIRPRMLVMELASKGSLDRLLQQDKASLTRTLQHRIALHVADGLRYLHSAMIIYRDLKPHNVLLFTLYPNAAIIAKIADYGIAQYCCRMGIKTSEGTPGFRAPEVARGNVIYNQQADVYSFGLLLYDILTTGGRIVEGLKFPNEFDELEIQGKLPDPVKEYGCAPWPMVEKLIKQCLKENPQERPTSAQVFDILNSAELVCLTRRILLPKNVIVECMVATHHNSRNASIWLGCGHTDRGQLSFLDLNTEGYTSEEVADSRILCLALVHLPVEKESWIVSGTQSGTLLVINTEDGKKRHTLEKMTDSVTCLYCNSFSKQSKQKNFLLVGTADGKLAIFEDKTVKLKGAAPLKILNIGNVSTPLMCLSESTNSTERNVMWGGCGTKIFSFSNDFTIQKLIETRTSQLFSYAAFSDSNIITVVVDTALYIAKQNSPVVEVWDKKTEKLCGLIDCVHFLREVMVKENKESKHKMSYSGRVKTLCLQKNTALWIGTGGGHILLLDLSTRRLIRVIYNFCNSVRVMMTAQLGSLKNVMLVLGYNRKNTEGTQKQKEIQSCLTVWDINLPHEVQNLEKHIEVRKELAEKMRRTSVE

Row | IC50 [nM] | SMILES
1 | < 10 | CCNc1nc(Nc2cn(C(C)(C)C#N)nc2C)nc2[nH]cc(C(F)(F)F)c12 [Example 103, 2-(4-((4-(ethylamino)-5-(trifluoromethyl)-7H-pyrrolo[2,3-d]pyrimidine-2-yl)amino)-3-methyl-1H-pyrazole-1-yl)-2-methylpropanenitrile]
2 | 10 to 100 | CNc1nc(Nc2cnn(C)c2C)nc2[nH]cc(C#N)c12 [Example 29, 6-((1,5-dimethyl-1H-pyrazole-4-yl)amino)-4-(methylamino)-1H-pyrrolo[2,3-b]pyrimidine-3-carbonitrile]
3 | 10 to 100 | CCNc1nc(Nc2cnn([C@H]3CCN(C4COC4)C[C@@H]3F)c2Cl)nc2[nH]cc(C(F)(F)F)c12 [Example 102, N^2-(5-chloro-1-((3S,4S)-3-fluoro-1-(oxetane-3-yl)piperidine-4-yl)-1H-pyrazole-4-yl)-N^4-ethyl-5-(trifluoromethyl)-7H-pyrrolo[2,3-d]pyrimidine-2,4-diamine]
4 | 10 to 100 | CCNc1nc(Nc2sc(C(C)(C)C#N)nc2C)nc2[nH]cc(C#N)c12 [Example 132, 2-((2-(2-cyanopropane-2-yl)-4-methylthiazole-5-yl)amino)-4-(ethylamino)-7H-pyrrolo[2,3-d]pyrimidine-5-carbonitrile]
5 | < 10 | CCNc1nc(Nc2cnn(CCO)c2)nc2[nH]cc(C#N)c12 [Example 70, 4-(ethylamino)-2-((1-(2-hydroxyethyl)-1H-pyrazole-4-yl)amino)-7H-pyrrolo[2,3-d]pyrimidine-5-carbonitrile]
6 | < 10 | CNc1nc(Nc2cn(C(C)(C)C#N)nc2C)nc2[nH]cc(C#N)c12 [Example 47, 2-((1-(2-cyanopropane-2-yl)-3-methyl-1H-pyrazole-4-yl)amino)-4-(methylamino)-7H-pyrrolo[2,3-d]pyrimidine-5-carbonitrile]
7 | 10 to 100 | CCNc1nc(Nc2ccc3c(c2)CN(C)C3=O)nc2[nH]cc(C(F)(F)F)c12 [Example 136, 5-((4-(ethylamino)-5-(trifluoromethyl)-7H-pyrrolo[2,3-d]pyrimidine-2-yl)amino)-2-methylisoindolin-1-one]
8 | < 10 | CCNc1nc(Nc2cc(OC)c(OC)c(OC)c2)nc2[nH]cc(C#N)c12 [Example 3, 4-(ethylamino)-2-((3,4,5-trimethoxyphenyl)amino)-7H-pyrrolo[2,3-d]pyrimidine-5-carbonitrile]
9 | < 10 | CNc1nc(Nc2cn(C(C)(C)C(N)=O)nc2C)nc2[nH]cc(C#N)c12 [Example 46, 2-(4-((5-cyano-4-(methylamino)-7H-pyrrolo[2,3-d]pyrimidine-2-yl)amino)-3-methyl-1H-pyrazole-1-yl)-2-methylpropaneamide]
10 | 10 to 100 | F[C@H]1CN(C2COC2)CC[C@@H]1n1ncc(Nc2nc(NC3CC3)c3c(C(F)(F)F)c[nH]c3n2)c1Cl [Example 117, N^2-(5-chloro-1-((3S,4S)-3-fluoro-1-(oxetane-3-yl)piperidine-4-yl)-1H-pyrazole-4-yl)-N^4-cyclopropyl-5-(trifluoromethyl)-7H-pyrrolo[2,3-d]pyrimidine-2,4-diamine]
11 | < 10 | Cc1c(Nc2nc(NC3(C)CC3)c3c(C#N)c[nH]c3n2)cnn1C [Example 41, 2-((1,5-dimethyl-1H-pyrazole-4-yl)amino)-4-((1-methylcyclopropyl)amino)-7H-pyrrolo[2,3-d]pyrimidine-5-carbonitrile]
12 | < 10 | CNc1nc(Nc2ccc(C(=O)N3CCC(N4CCOCC4)CC3)cc2OC)nc2[nH]cc(C#N)c12 [Example 9, 2-((2-methoxy-4-(4-morpholinylpiperidine-1-carbonyl)phenyl)amino)-4-(methylamino)-7H-pyrrolo[2,3-d]pyrimidine-5-carbonitrile]
13 | < 10 | COc1cc(C(=O)N2CCO[C@@H](C)C2)ccc1Nc1nc(NC2(C)CC2)c2c(C#N)c[nH]c2n1 [Example 43, (S)-2-((2-methoxy-4-(2-methylmorpholine-4-carbonyl)phenyl)amino)-4-((1-methylcyclopropyl)amino)-7H-pyrrolo[2,3-d]pyrimidine-5-carbonitrile]
14 | > 100 | CNc1nc(Nc2c(C)nn(C(C)(C)C#N)c2C)nc2[nH]cc(C#N)c12 [Example 77, 2-((1-(2-cyanopropane-2-yl)-3,5-dimethyl-1H-pyrazole-4-yl)amino)-4-(methylamino)-7H-pyrrolo[2,3-d]pyrimidine-5-carbonitrile]
15 | < 10 | CCNc1nc(Nc2cnn([C@H]3CCN(C4COC4)C[C@@H]3F)c2)nc2[nH]cc(C#N)c12 [Example 53]
16 | < 10 | CNc1nc(Nc2ccc(C(=O)N3CCN(C4COC4)CC3)cc2OC)nc2[nH]cc(C#N)c12 [Example 57]
17 | < 10 | Cc1nn(C)cc1Nc1nc(NC2(C)CC2)c2c(C#N)c[nH]c2n1 [Example 40, 2-((1,3-dimethyl-1H-pyrazole-4-yl)amino)-4-((1-methylcyclopropyl)amino)-7H-pyrrolo[2,3-d]pyrimidine-5-carbonitrile]
18 | 10 to 100 | COc1cc(C(=O)N2CCOCC2)c(F)cc1Nc1nc(NC2CC2)c2c(C#N)c[nH]c2n1 [Example 18, 4-(cyclopropylamino)-2-((5-fluoro-2-methoxy-4-(morpholine-4-carbonyl)phenyl)amino)-7H-pyrrolo[2,3-d]pyrimidine-5-carbonitrile]
19 | < 10 | CCNc1nc(Nc2ccc(C(=O)N3CCN(C)C[C@H]3C)cc2OC)nc2[nH]cc(C#N)c12 [Example 76, (R)-2-((4-(2,4-dimethylpiperazine-1-carbonyl)-2-methoxyphenyl)amino)-4-(ethylamino)-7H-pyrrolo[2,3-d]pyrimidine-5-carbonitrile]
20 | < 10 | COc1cc(C(=O)N2CCC(N3CCOCC3)CC2)ccc1Nc1nc(OC2CCOC2)c2c(C#N)c[nH]c2n1 (stereo not shown) [Example 87, 2-((2-methoxy-4-(4-morpholinopiperidine-1-carbonyl)phenyl)amino)-4-((tetrahydrofuran-3-yl)oxy)-7H-pyrrolo[2,3-d]pyrimidine-5-carbonitrile]
21 | < 10 | CNc1nc(Nc2cnn(CCO)c2)nc2[nH]cc(C#N)c12 [Example 69, 2-((1-(2-hydroxyethyl)-1H-pyrazole-4-yl)amino)-4-(methylamino)-7H-pyrrolo[2,3-d]pyrimidine-5-carbonitrile]
22 | 10 to 100 | CCCNc1nc(Nc2cc(F)c(C(=O)N3CCOCC3)cc2OC)nc2[nH]cc(C#N)c12 [Example 14, 2-((5-fluoro-2-methoxy-4-(morpholine-4-carbonyl)phenyl)amino)-4-(propylamino)-7H-pyrrolo[2,3-d]pyrimidine-5-carbonitrile]
23 | 10 to 100 | CCNc1nc(Nc2cc(F)c(C(=O)NC3CCN(C)CC3)cc2OC)nc2[nH]cc(C#N)c12 [Example 66, 4-((5-cyano-4-(ethylamino)-7H-pyrrolo[2,3-d]pyrimidine-2-yl)amino)-2-fluoro-5-methoxy-N-(1-methylpiperidine-4-yl)benzamide]
24 | > 100 | CCNc1nc(Nc2ncc(C(=O)N3CCOCC3)cc2OC)nc2[nH]cc(C#N)c12 [Example 48, 4-(ethylamino)-2-((3-methoxy-5-(morpholine-4-carbonyl)pyridine-2-yl)amino)-7H-pyrrolo[2,3-d]pyrimidine-5-carbonitrile]
25 | < 10 | CCNc1nc(Nc2ccc(C(=O)N3CCO[C@@H](C)C3)cc2OC)nc2[nH]cc(C#N)c12 [Example 26, (S)-4-(ethylamino)-2-((2-methoxy-4-(2-methylmorpholine-4-carbonyl)phenyl)amino)-7H-pyrrolo[2,3-d]pyrimidine-5-carbonitrile]
